Columns and labels:
[1] = biological target: Calcium/calmodulin-dependent protein kinase type II subunit alpha (Homo sapiens) (UniProt Q9UQM7)
[2] = biological target: Calcium/calmodulin-dependent protein kinase type II subunit beta (Homo sapiens) (UniProt Q13554)
[3] = biological target: Calcium/calmodulin-dependent protein kinase type IV (Homo sapiens) (UniProt Q16566)
[4] = biological target: Cyclin-dependent kinase 13 (Homo sapiens) (UniProt Q14004)
[5] = biological target: Cyclin-dependent kinase 19 (Homo sapiens) (UniProt Q9BWU1)
[6] = biological target: Cyclin-dependent kinase-like 5 (Homo sapiens) (UniProt O76039)
[7] = biological target: Citron Rho-interacting kinase (Homo sapiens) (UniProt O14578)
[8] = biological target: Casein kinase I isoform gamma-2 (Homo sapiens) (UniProt P78368)
[9] = biological target: Death-associated protein kinase 3 (Homo sapiens) (UniProt O43293)
[10] = biological target: Myotonin-protein kinase (Homo sapiens) (UniProt Q09013)
[11] = test system: Epidermal growth factor receptor (Homo sapiens), P00533 [T790M]
[12] = biological target: Mitogen-activated protein kinase 15 (Homo sapiens) (UniProt Q8TD08)
[13] = biological target: Fibroblast growth factor receptor 1 (Homo sapiens) (UniProt P11362)
Sequence of Fibroblast growth factor receptor 1 (Homo sapiens) (P11362 22-822 limits assumed): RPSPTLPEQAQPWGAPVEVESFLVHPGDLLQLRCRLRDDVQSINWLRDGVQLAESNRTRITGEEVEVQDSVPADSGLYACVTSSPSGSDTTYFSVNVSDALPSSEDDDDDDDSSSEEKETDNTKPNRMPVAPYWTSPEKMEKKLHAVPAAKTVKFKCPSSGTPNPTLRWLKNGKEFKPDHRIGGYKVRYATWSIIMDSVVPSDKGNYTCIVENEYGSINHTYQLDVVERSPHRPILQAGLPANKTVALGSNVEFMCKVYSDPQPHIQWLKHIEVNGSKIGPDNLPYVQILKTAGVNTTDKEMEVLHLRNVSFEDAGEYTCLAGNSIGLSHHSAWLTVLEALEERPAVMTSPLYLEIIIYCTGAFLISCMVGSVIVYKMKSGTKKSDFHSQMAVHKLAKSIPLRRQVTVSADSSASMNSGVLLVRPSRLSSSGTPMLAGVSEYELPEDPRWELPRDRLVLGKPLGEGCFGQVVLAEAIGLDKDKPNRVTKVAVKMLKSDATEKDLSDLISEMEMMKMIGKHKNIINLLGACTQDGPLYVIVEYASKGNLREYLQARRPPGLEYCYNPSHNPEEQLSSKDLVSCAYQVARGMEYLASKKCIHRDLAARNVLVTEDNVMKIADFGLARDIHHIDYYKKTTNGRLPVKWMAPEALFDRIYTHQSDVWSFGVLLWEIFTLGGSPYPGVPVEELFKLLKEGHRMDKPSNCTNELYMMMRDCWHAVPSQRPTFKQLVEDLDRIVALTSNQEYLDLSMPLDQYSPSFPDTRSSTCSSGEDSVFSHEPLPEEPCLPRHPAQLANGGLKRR

[14] = biological target: Tyrosine-protein kinase Fgr (Homo sapiens) (UniProt P09769)
[15] = test system: Receptor-type tyrosine-protein kinase FLT3 (Homo sapiens), P36888 [D835V]
[16] = test system: Receptor-type tyrosine-protein kinase FLT3 (Homo sapiens), P36888 [D835Y]
[17] = test system: Receptor-type tyrosine-protein kinase FLT3 (Homo sapiens), P36888 [UNDEFINED MUTATION]
[18] = test system: Receptor-type tyrosine-protein kinase FLT3 (Homo sapiens), P36888 [R834Q]
[19] = biological target: Glycogen synthase kinase-3 alpha (Homo sapiens) (UniProt P49840)
[20] = biological target: Mast/stem cell growth factor receptor Kit (Homo sapiens) (UniProt P10721)
[21] = biological target: Serine/threonine-protein kinase STK11 (Homo sapiens) (UniProt Q15831)
[22] = biological target: Dual specificity mitogen-activated protein kinase kinase 5 (Homo sapiens) (UniProt Q13163)
[23] = biological target: Mitogen-activated protein kinase kinase kinase 11 (Homo sapiens) (UniProt Q16584)
Sequence of Mitogen-activated protein kinase kinase kinase 11 (Homo sapiens) (Q16584 whole entry, looked up): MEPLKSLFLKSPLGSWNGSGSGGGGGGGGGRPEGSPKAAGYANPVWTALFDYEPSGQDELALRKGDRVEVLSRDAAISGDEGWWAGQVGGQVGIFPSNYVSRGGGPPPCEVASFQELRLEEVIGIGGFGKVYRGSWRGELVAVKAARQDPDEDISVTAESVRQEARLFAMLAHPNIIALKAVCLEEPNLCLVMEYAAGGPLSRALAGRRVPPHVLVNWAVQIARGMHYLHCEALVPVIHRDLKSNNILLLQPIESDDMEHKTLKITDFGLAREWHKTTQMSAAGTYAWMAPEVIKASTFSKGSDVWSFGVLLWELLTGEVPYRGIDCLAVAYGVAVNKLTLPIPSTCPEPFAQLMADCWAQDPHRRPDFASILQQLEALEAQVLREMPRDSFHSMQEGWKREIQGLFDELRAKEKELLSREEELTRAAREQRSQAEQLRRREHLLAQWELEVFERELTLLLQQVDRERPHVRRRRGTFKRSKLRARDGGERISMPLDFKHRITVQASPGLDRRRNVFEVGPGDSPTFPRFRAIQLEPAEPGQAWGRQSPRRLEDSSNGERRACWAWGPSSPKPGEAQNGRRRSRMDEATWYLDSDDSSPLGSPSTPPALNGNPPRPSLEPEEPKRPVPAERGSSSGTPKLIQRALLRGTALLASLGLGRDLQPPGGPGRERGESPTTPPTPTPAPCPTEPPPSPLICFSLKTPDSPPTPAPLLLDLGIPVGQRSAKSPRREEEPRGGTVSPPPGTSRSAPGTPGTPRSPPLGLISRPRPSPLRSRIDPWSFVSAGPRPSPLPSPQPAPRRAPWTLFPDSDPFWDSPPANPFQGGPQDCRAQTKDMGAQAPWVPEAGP

[24] = biological target: Myosin-IIIb (Homo sapiens) (UniProt Q8WXR4)
[25] = biological target: Serine/threonine-protein kinase NLK (Homo sapiens) (UniProt Q9UBE8)
[26] = biological target: Serine/threonine-protein kinase OSR1 (Homo sapiens) (UniProt O95747)
Sequence of Serine/threonine-protein kinase OSR1 (Homo sapiens) (O95747 2-527 limits assumed): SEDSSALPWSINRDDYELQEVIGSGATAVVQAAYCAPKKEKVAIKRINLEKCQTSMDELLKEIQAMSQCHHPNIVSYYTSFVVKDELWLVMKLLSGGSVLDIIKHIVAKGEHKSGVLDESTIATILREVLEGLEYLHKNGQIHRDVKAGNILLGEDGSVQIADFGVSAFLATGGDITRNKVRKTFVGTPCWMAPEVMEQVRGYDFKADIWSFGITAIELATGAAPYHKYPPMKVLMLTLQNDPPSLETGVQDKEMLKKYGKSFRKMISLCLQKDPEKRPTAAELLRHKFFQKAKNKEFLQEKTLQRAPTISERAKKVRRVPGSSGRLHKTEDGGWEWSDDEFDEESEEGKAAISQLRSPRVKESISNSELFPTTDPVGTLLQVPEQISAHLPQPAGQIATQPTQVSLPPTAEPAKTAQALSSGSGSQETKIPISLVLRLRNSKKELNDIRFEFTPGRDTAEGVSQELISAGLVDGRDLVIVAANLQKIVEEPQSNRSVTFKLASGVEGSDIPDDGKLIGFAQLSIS

[27] = biological target: Phosphorylase b kinase gamma catalytic chain, skeletal muscle/heart isoform (Homo sapiens) (UniProt Q16816)
[28] = test system: Phosphatidylinositol 4,5-bisphosphate 3-kinase catalytic subunit alpha isoform (Homo sapiens), P42336 [E545A]
[29] = test system: Phosphatidylinositol 4,5-bisphosphate 3-kinase catalytic subunit alpha isoform (Homo sapiens), P42336 [H1047L]
[30] = biological target: Serine/threonine-protein kinase PknB (Mycobacterium tuberculosis) (UniProt P9WI81)
[31] = biological target: Serine/threonine-protein kinase PLK2 (Homo sapiens) (UniProt Q9NYY3)
[32] = biological target: cAMP-dependent protein kinase catalytic subunit PRKX (Homo sapiens) (UniProt P51817)
[33] = biological target: Serine/threonine-protein kinase SIK3 (Homo sapiens) (UniProt Q9Y2K2)
Sequence of Serine/threonine-protein kinase SIK3 (Homo sapiens) (Q9Y2K2 whole entry, looked up): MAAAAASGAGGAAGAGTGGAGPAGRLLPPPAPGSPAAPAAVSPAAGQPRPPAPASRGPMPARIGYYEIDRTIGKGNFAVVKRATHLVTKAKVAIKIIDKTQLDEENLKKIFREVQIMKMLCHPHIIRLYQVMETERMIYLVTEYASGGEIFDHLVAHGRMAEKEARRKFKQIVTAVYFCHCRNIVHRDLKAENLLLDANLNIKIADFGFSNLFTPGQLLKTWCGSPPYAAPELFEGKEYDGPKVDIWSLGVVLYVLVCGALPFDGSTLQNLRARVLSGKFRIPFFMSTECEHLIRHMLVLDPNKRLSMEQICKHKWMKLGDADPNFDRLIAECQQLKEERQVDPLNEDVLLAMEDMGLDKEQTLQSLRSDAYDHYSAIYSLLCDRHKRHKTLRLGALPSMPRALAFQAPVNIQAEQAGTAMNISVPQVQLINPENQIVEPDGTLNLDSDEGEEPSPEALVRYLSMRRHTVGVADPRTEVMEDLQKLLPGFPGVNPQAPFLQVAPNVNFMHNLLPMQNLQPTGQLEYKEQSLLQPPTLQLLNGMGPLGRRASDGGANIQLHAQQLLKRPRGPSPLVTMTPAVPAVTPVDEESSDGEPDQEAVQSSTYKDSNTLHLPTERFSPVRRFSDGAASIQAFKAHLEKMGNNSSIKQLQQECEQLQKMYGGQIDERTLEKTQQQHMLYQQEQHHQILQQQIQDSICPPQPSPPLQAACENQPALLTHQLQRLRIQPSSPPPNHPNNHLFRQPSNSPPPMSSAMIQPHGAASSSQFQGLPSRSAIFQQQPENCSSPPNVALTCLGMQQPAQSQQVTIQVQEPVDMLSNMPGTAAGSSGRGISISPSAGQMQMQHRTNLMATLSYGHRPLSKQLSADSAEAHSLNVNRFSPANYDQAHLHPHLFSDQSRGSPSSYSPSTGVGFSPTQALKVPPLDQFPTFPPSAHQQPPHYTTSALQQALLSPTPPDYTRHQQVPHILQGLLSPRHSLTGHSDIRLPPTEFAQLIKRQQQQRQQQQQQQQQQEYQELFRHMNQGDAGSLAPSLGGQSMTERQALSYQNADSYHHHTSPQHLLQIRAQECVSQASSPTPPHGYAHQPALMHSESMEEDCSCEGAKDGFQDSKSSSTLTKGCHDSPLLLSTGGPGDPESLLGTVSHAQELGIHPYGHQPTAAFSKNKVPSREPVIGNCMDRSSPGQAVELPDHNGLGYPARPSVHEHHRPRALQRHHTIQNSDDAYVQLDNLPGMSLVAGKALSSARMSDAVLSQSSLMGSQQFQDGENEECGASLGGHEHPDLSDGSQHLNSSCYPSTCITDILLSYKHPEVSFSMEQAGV

[34] = test system: Proto-oncogene tyrosine-protein kinase receptor Ret (Homo sapiens), P07949 [M918T]
[35] = biological target: Dual serine/threonine and tyrosine protein kinase (Homo sapiens) (UniProt Q6XUX3)
[36] = biological target: Serine/threonine-protein kinase 35 (Homo sapiens) (UniProt Q8TDR2)
[37] = biological target: STE20/SPS1-related proline-alanine-rich protein kinase (Homo sapiens) (UniProt Q9UEW8)
[38] = biological target: Tyrosine-protein kinase Tec (Homo sapiens) (UniProt P42680)
Sequence of Tyrosine-protein kinase Tec (Homo sapiens) (P42680 whole entry): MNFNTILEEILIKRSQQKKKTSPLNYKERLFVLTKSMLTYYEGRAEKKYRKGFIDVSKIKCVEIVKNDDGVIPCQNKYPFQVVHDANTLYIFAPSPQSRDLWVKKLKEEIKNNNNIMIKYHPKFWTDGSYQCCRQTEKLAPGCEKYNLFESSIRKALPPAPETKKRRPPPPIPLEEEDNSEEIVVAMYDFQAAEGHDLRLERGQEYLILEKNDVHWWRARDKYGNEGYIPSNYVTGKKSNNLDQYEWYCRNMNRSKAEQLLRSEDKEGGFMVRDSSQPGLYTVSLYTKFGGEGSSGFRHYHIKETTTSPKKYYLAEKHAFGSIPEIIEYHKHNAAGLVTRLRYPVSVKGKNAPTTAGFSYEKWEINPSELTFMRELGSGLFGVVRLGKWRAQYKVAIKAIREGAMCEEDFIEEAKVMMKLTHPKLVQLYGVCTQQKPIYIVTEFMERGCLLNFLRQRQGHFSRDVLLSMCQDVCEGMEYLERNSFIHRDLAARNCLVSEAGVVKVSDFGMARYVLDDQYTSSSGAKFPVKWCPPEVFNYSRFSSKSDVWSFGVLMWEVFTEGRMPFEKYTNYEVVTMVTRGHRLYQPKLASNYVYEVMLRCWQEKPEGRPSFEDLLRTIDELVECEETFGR

[39] = biological target: Tyrosine-protein kinase receptor Tie-1 (Homo sapiens) (UniProt P35590)
[40] = biological target: Non-receptor tyrosine-protein kinase TYK2 (Homo sapiens) (UniProt P29597)
[41] = biological target: 5-hydroxytryptamine receptor 2B (Homo sapiens) (UniProt P41595); details: Compound concentration 10.0 uM
[42] = biological target: D(4) dopamine receptor (Homo sapiens) (UniProt P21917); details: Compound concentration 10.0 uM
[43] = biological target: Delta-type opioid receptor (Homo sapiens) (UniProt P41143); details: Compound concentration 10.0 uM
[44] = biological target: Beta-1 adrenergic receptor (Homo sapiens) (UniProt P08588); details: Compound concentration 10.0 uM
Sequence of Beta-1 adrenergic receptor (Homo sapiens) (P08588 whole entry, looked up): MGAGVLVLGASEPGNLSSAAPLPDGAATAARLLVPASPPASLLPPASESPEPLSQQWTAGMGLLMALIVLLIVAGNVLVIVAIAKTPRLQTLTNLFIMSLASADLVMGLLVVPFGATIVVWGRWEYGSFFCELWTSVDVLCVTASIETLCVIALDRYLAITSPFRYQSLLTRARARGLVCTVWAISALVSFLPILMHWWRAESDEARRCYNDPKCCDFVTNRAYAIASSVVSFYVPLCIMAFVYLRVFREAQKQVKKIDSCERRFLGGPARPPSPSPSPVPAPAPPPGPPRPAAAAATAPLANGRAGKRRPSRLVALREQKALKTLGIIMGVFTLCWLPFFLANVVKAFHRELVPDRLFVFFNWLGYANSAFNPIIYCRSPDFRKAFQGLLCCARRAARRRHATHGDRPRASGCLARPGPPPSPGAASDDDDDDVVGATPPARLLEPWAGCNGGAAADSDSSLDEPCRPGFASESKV

[45] = Compound concentration 100.0 nM
[46] = Compound concentration 1000.0 nM

Sequence of Calcium/calmodulin-dependent protein kinase type IV (Homo sapiens) (Q16566 whole entry): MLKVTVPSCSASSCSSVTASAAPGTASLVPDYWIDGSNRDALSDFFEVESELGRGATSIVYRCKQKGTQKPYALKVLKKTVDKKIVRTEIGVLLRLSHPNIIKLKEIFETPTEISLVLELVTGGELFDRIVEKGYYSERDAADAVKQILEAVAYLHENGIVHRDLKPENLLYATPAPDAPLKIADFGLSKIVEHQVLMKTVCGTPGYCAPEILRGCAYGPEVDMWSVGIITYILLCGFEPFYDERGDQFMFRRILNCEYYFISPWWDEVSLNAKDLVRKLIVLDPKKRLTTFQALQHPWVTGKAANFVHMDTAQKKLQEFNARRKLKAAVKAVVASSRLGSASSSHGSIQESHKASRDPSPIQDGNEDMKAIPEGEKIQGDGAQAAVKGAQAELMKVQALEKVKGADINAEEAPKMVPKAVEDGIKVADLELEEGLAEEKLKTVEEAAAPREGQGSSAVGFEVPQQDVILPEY

Q: Which residual activity [1, 45] does the source give for `CNC(=O)c1ccc(Nc2ncc(C(F)(F)F)c(NCc3nccnc3N(C)S(C)(=O)=O)n2)cc1` [DEFACTINIB] here?
A: 83%

Q: And the residual activity [2, 45]?
A: 86%

Q: What about the residual activity [3, 45] of the same compound?
A: 100%

Q: And the residual activity [4, 45]?
A: 94%

Q: What about the residual activity [5, 45] of the same compound?
A: 100%

Q: What about the residual activity [6, 45] of the same compound?
A: 100%

Q: And the residual activity [7, 45]?
A: 68%

Q: What about the residual activity [8, 45] of the same compound?
A: 99%

Q: And the residual activity [9, 45]?
A: 75%

Q: What about the residual activity [10, 45] of the same compound?
A: 16%

Q: What about the residual activity [11, 45] of the same compound?
A: 99%

Q: And the residual activity [12, 45]?
A: 40%

Q: What about the residual activity [13, 45] of the same compound?
A: 89%

Q: And the residual activity [14, 45]?
A: 81%

Q: What about the residual activity [15, 45] of the same compound?
A: 0.2%

Q: And the residual activity [16, 45]?
A: 5.9%

Q: What about the residual activity [17, 45] of the same compound?
A: 9%

Q: And the residual activity [18, 45]?
A: 64%

Q: And the residual activity [19, 45]?
A: 83%

Q: What about the residual activity [20, 45] of the same compound?
A: 84%

Q: What about the residual activity [21, 45] of the same compound?
A: 100%

Q: And the residual activity [22, 45]?
A: 89%

Q: And the residual activity [23, 45]?
A: 35%

Q: What about the residual activity [24, 45] of the same compound?
A: 100%

Q: What about the residual activity [25, 45] of the same compound?
A: 100%

Q: What about the residual activity [26, 45] of the same compound?
A: 100%

Q: What about the residual activity [27, 45] of the same compound?
A: 100%

Q: And the residual activity [28, 45]?
A: 98%

Q: What about the residual activity [29, 45] of the same compound?
A: 32%

Q: And the residual activity [30, 45]?
A: 69%

Q: What about the residual activity [31, 45] of the same compound?
A: 77%

Q: And the residual activity [32, 45]?
A: 95%

Q: And the residual activity [33, 45]?
A: 82%

Q: And the residual activity [34, 45]?
A: 72%

Q: And the residual activity [35, 45]?
A: 87%

Q: What about the residual activity [36, 45] of the same compound?
A: 100%

Q: What about the residual activity [37, 45] of the same compound?
A: 100%

Q: What about the residual activity [38, 45] of the same compound?
A: 100%

Q: What about the residual activity [39, 45] of the same compound?
A: 47%

Q: And the residual activity [40, 45]?
A: 87%

Q: What about the inhibition [41] of the same compound?
A: 5.73%

Q: What about the inhibition [42] of the same compound?
A: 7.8%

Q: What about the inhibition [43] of the same compound?
A: -0.28%

Q: What about the inhibition [44] of the same compound?
A: -0.83%

Q: `CN(c1ccnc(CNc2nc(Nc3ccc4c(c3)CC(=O)N4)ncc2C(F)(F)F)n1)S(C)(=O)=O` [PF-00911705] was tested. Which residual activity [1, 46] did it give?
A: 67%

Q: What about the residual activity [2, 46] of the same compound?
A: 86%

Q: And the residual activity [3, 46]?
A: 100%

Q: What about the residual activity [4, 46] of the same compound?
A: 82%

Q: And the residual activity [5, 46]?
A: 84%

Q: What about the residual activity [6, 46] of the same compound?
A: 87%

Q: And the residual activity [7, 46]?
A: 99%

Q: And the residual activity [8, 46]?
A: 100%

Q: What about the residual activity [9, 46] of the same compound?
A: 33%

Q: And the residual activity [10, 46]?
A: 23%

Q: What about the residual activity [11, 46] of the same compound?
A: 100%

Q: What about the residual activity [12, 46] of the same compound?
A: 4.8%

Q: And the residual activity [13, 46]?
A: 82%

Q: And the residual activity [14, 46]?
A: 58%

Q: And the residual activity [15, 46]?
A: 1.5%

Q: And the residual activity [16, 46]?
A: 2%

Q: What about the residual activity [17, 46] of the same compound?
A: 0%

Q: And the residual activity [18, 46]?
A: 30%

Q: What about the residual activity [19, 46] of the same compound?
A: 64%

Q: And the residual activity [20, 46]?
A: 85%

Q: What about the residual activity [21, 46] of the same compound?
A: 72%

Q: What about the residual activity [22, 46] of the same compound?
A: 48%

Q: And the residual activity [23, 46]?
A: 32%

Q: And the residual activity [24, 46]?
A: 68%

Q: And the residual activity [25, 46]?
A: 98%

Q: And the residual activity [26, 46]?
A: 86%

Q: And the residual activity [27, 46]?
A: 76%

Q: What about the residual activity [28, 46] of the same compound?
A: 90%

Q: And the residual activity [29, 46]?
A: 92%

Q: What about the residual activity [30, 46] of the same compound?
A: 80%

Q: What about the residual activity [31, 46] of the same compound?
A: 0.5%

Q: What about the residual activity [32, 46] of the same compound?
A: 15%

Q: What about the residual activity [33, 46] of the same compound?
A: 82%

Q: And the residual activity [34, 46]?
A: 50%

Q: And the residual activity [35, 46]?
A: 53%

Q: What about the residual activity [36, 46] of the same compound?
A: 86%

Q: And the residual activity [37, 46]?
A: 100%

Q: And the residual activity [38, 46]?
A: 100%

Q: And the residual activity [39, 46]?
A: 17%

Q: And the residual activity [40, 46]?
A: 59%

Q: And the inhibition [41]?
A: 13.5%

Q: What about the inhibition [42] of the same compound?
A: 2.34%

Q: What about the inhibition [43] of the same compound?
A: -6.88%

Q: And the inhibition [44]?
A: 16.4%

Reference: ChEMBL document CHEMBL4507299, “Data for DCP probe PF-04554878” (2021)
